# Laboratory results: paper PMC9127750, “Structure-based design of CDC42 effector interaction inhibitors for the treatment of cancer” (Cell reports, 2022)
# “And” between values parts separate entries of the source, which are not always exact repeats. Identical values can stand only once.
# Test system: WM3248 melanoma cells, 486 antibodies
# Assay: Reverse phase protein arrays (RPPA);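 for CREB pS133.R.C RPPA level: ratio of treated to vehicle (0 µM) normalized linear protein signal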;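 for Cyclin.B1.R.V RPPA level: ratio of treated to vehicle (0 µM) normalized linear protein signal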;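 for Cyclin.E1.R.V RPPA level: ratio of treated to vehicle (0 µM) normalized linear protein signal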;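 for DDB.1.R.V RPPA level: ratio of treated to vehicle (0 µM) normalized linear protein signal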
# Type: cell-based, Human
# Details: 10 uM
# Description: Pellets were snap frozen in liquid nitrogen and shipped to MD Anderson Cancer Center core RPPA facility for RPPA analysis (Table S5). Three biological replicates for each sample were generated.
# Nomenclatures on the RPPA heatmaps: name_of_antibody.species_of_antibody.status_of_antibody. V - antibody validated; C - validation of antibody in progress; Q - antibody nonspecific; E – under evaluation; antibodies raised in M - mouse, G - goat, R - rabbit, or T - rat.
compound,measurement,setting,value
"CN(C)c1cccc(Nc2cc(-c3ccccc3)nc(C3CCNCC3)n2)c1 [ARN22089, N1,N1-dimethyl-N3-(6-phenyl-2-(piperidin-4-yl)pyrimidin-4-yl)benzene-1,3-diamine]",CENP.A.R.V RPPA level,replicates,1.151 and 1.005 and 0.894
same,CHD1L.R.V RPPA level,replicates,1.053 and 0.975
same,CIITA.R.C RPPA level,replicates,0.943
same,COG3.R.V RPPA level,replicates,1.004 and 1.123 and 1.059
same,CRABP1.R.C RPPA level,replicates,1.020 and 1.132 and 0.998
same,CRABP2.R.V RPPA level,replicates,1.116 and 1.191 and 0.898
same,CREB_pS133.R.C RPPA level,replicates,1.215 and 1.129 and 1.046
same,CSK.R.C RPPA level,replicates,1.016 and 1.050
same,Calnexin.R.V RPPA level,replicates,1.054 and 1.062 and 1.021
same,Caspase.3.cleaved.R.C RPPA level,replicates,0.914 and 0.955 and 0.964
same,Caspase.7.cleaved..R.C RPPA level,replicates,0.854 and 1.203 and 0.935
same,Caspase.8.M.Q RPPA level,replicates,0.939 and 0.985 and 0.948
same,Caspase.8.cleaved.R.C RPPA level,replicates,1.012 and 1.005
same,Caveolin.1.R.V RPPA level,replicates,0.511 and 0.968 and 1.344
same,Cdc6.R.V RPPA level,replicates,1.149 and 0.959 and 0.806
same,Cdc42.R.C RPPA level,replicates,0.879 and 1.031 and 1.047
same,Chk1.M.C RPPA level,replicates,0.982
same,Chk1_pS296.R.V RPPA level,replicates,1.083 and 1.109 and 1.035
same,Chk1_pS345.R.C RPPA level,replicates,1.079 and 0.892
same,Chk2.M.V RPPA level,replicates,1.081 and 1.018 and 0.980
same,Chk2_pT68.R.C RPPA level,replicates,1.106 and 0.986
same,Claudin.7.R.V RPPA level,replicates,1.024 and 1.518
same,Collagen.VI.R.V RPPA level,replicates,1.360 and 0.732 and 0.984
same,Complex.II.Subunit.M.V RPPA level,replicates,0.942 and 1.064
same,Connexin.43.R.C RPPA level,replicates,1.028 and 1.053 and 1.013
same,Coup.TFII.R.C RPPA level,replicates,0.805 and 0.957 and 0.905
same,Cox2.R.C RPPA level,replicates,0.926
same,Cox.IV.R.V RPPA level,replicates,0.954 and 1.028 and 0.879
same,Creb.R.C RPPA level,replicates,0.985 and 0.987 and 0.986
same,CtIP.R.V RPPA level,replicates,0.811 and 0.959 and 1.049
same,Cyclin.B1.R.V RPPA level,replicates,1.215 and 0.558 and 1.046
same,Cyclin.D1.R.C RPPA level,replicates,1.058 and 1.030
same,Cyclin.D3.M.V RPPA level,replicates,1.147 and 1.027 and 0.999
same,Cyclin.E1.R.V RPPA level,replicates,1.052 and 1.061 and 0.904
same,D.a.Tubulin.R.V RPPA level,replicates,0.843 and 1.062 and 1.022
same,DAPK1_pS308.M.C RPPA level,replicates,1.219 and 0.875
same,DAPK2.R.C RPPA level,replicates,0.896 and 0.971
same,DDB.1.R.V RPPA level,replicates,0.816 and 0.798 and 0.956
same,DDR1.R.V RPPA level,replicates,1.205 and 0.959 and 0.921
same,DDR1_pY513.R.C RPPA level,replicates,1.134 and 1.079 and 0.941
same,DJ1.R.V RPPA level,replicates,0.977 and 1.030
same,DM.Histone.H3.R.V RPPA level,replicates,0.923 and 0.956 and 0.905
same,DM.K9.Histone.H3.M.V RPPA level,replicates,1.060 and 1.027
same,DNA.Ligase.IV.R.C RPPA level,replicates,0.876 and 1.063
same,DNA_POLG.R.V RPPA level,replicates,1.161 and 1.030 and 0.850
same,c.Jun_pS73.R.V RPPA level,replicates,0.892 and 1.231 and 0.915
same,c.Kit.R.V RPPA level,replicates,1.223 and 0.923 and 0.946
same,c.Met_pY1234_Y1235.R.V RPPA level,replicates,0.927 and 0.979
same,c.Myc.R.C RPPA level,replicates,0.990 and 1.949 and 1.062
same,cGAS.R.V RPPA level,replicates,1.123 and 1.204 and 1.015
same,cdc2_pY15.R.C RPPA level,replicates,1.056 and 0.933
same,cdc25C.R.V RPPA level,replicates,0.773 and 0.805 and 1.120
same,RPPA MYH11.R.C,single replicates,1.100 and 1.584
same,RPPA Myosin.IIa.R.C,single replicates,0.877 and 0.781 and 1.164
same,RPPA Myosin.IIa_pS1943.R.V,single replicates,0.954 and 0.844 and 1.268
same,RPPA Myt1.R.C,single replicates,0.886 and 0.984 and 1.096
same,RPPA N.Cadherin.R.V,single replicates,1.097 and 1.063 and 1.030
same,RPPA N.Ras.M.V,single replicates,0.953 and 0.958 and 1.062
same,RPPA NAPSIN.A.R.C,single replicates,0.999 and 1.048
same,RPPA NDRG1_pT346.R.V,single replicates,0.798 and 1.051 and 1.195
same,RPPA NDUFB4.R.V,single replicates,1.112 and 1.008 and 0.987
same,RPPA NRF2.R.C,single replicates,1.131 and 0.925 and 0.932
same,RPPA Notch1.R.V,single replicates,1.065 and 1.124 and 1.005
same,RPPA Notch1.cleaved.R.V,single replicates,0.792 and 0.886 and 1.098
same,RPPA Notch3.R.C,single replicates,1.065 and 1.230 and 1.000
same,RPPA Oct.4.R.C,single replicates,0.909
same,RPPA P.Cadherin.R.C,single replicates,1.001 and 0.968
same,RPPA PAI.1.M.V,single replicates,0.919 and 0.946
same,RPPA PAICS.R.C,single replicates,0.926 and 0.836 and 0.997
same,RPPA PAK1.R.V,single replicates,0.749 and 1.057 and 1.078
same,RPPA PAK4.R.V,single replicates,1.101 and 1.108 and 0.979
same,RPPA PAK_pS474_S602_S560.R.V,single replicates,1.125 and 1.130 and 1.000
same,RPPA PAK_pT423_T402.R.C,single replicates,1.141 and 0.908
same,RPPA PAR.R.C,single replicates,0.306 and 0.831 and 0.304
same,RPPA PARG.R.C,single replicates,0.976 and 1.013 and 0.921
same,RPPA PARP.R.V,single replicates,1.079 and 0.890 and 1.083
same,RPPA PAX6.R.V,single replicates,0.992 and 1.020 and 0.997
same,RPPA PAX8.R.C,single replicates,1.133 and 1.022 and 0.978
same,RPPA PCNA.M.C,single replicates,0.928 and 1.013 and 1.020
same,RPPA PD.1.R.V,single replicates,1.076 and 1.064 and 1.035
same,RPPA PD.L1.R.C,single replicates,0.845 and 1.047
same,RPPA PDH.M.V,single replicates,1.032 and 1.047 and 1.014
